Experimental data taken from patent publication US11318111B2, “CCL5 inhibitors” (LAPKO INC., priority 2018, dated 2022).

What was measured:
hand and facial eczema = experiment: Topical treatment of patients with hand and facial eczema; assay type: in vivo, human; settings: four patients, topically applied in cream base over 14 days
Experimental: To test the effect of the compounds on treatment of human dermatologic disorders associated with increased CCL5 production by keratinocytes, Compound 11 and Compound 21 were formulated into a topically applied cream at a concentration of 7%. The compounds in the cream base were applied topically to human subjects suffering from dermatitis in an area of the skin with active skin lesions. The control was the topical cream base composition without the active compounds. Outcome was measured by reduction or disappearance to the lesion in the treated area vs the control area.
Eczema: Four patients with hand and facial eczema were treated with Compound 97 topically applied in a cream base over a period of 14 days. By day 7 the eczema had resolved in the area treated in three of the patients and by day 12 in the fourth patient. The eczema persisted in the areas not so treated.

rosacea = experiment: Topical treatment of patients with rosacea; assay type: in vivo, human; settings: two patients, lotion form, 28 days; not in the untreated areas
Experimental: Rosacea: Two patients with rosacea were treated with Compound 25 for 28 days in a lotion form.

CC(C)OC(=O)C(C)(C)Oc1ccc(C(=O)c2ccc(Cl)cc2)cc1 [Compound 97]
eczema resolved in treated area by day (fourth patient) (hand and facial eczema; the fourth patient): ≤ 12 days
eczema resolved in treated area by day (three of the patients) (hand and facial eczema; three of the patients, eczema persisted in untreated areas): ≤ 7 days

CC(C)OC(=O)C(C)(C)Oc1ccc(C(F)(F)F)cc1 [Compound 25]
rosacea in treated area at end of course of therapy (rosacea): nearly disappeared
